Measurements published in US9820990B2, “Methods of treating disorders associated with protein aggregation” (University of Pittsburgh—Of the Commonwealth System of …, priority 2009, dated 2017).
Structures can show the parent of a compound that is named as a salt. Where two headings read alike, the source gives them in different places.

Tests used:
sGFP::ATZ [1] = assay: LOPAC library high-content primary screen for sGFP::ATZ accumulation in transgenic animals; type: in vivo, C. elegans; conditions: for Rank-score: 24 h
sGFP::ATZ [2] = assay: Hit compound characterization: dose-response in the sGFP::ATZ HCS assay; type: in vivo, C. elegans; parameters: key to dose-dependent response: c: Compound demonstrated a dose-dependent response.; Compound failed to demonstrate a dose-dependent response; conditions: for dose-dependent response: retest at 0-100 μM, 24 or 48 hours
Experimental: Imaging of animals using the ArrayScan VTI: Prior to imaging, worms were anesthetized by adding 30 μl of 0.02 M NaN3 in PBS to each well. Plates were resealed, inverted twice, and incubated for 5 minutes at room temperature. Images were acquired with the ArrayScan VTI HCS Reader fitted with a 2.5× objective and a 0.63× coupler using a 2-channel (TRITC and GFP) assay. Real-time analysis was performed using the SpotDetector BioApplication optimized to quantify fluorescent protein expression in C. elegans. Image acquisition and analysis of a 384-well plate was completed in <45 minutes. The total number of animals in the well was determined by counting the number of red heads (Pmyo-2mRFP) in the TRITC channel. Total spot area or total spot intensity was determined by quantifying the GFP-positive spots in the GFP channel. Total spot area or total spot intensity per animal was determined by dividing the values from the GFP channel by that from the TRITC channel.
Hit compound characterization: Compounds that were identified as potential hits were purchased (if available) and retested for verification. […] Compounds that produced a response in a dose-dependent manner were further tested for a time-dependent response. Compound dose-response curves were performed by dispensing 15 μl of a 4× stock solution into 384-well plates containing 15 μl of assay medium (see above). Thirty-five animals were sorted into each well bringing the volume to ˜60 μl. The final compound concentrations in each well varied from 0-100 μM. Assay plates were incubated in a 22° C. incubator for 24 or 48 hours. Each compound was tested in quadruplicate in at least 2 independent experiments.
Statistical evaluation: Statistical evaluation of data was performed using Prism® (Graphpad Software). The significance of actual and predicted data in FIGS. 12, 14 and 15 was determined using a linear regression analysis and comparing the slope and goodness-of-fit (r2) values. Statistical significance of the spot count, spot area and spot intensity values between N2 (wild-type) and various transgenic lines in FIG. 13 and dose-response in FIG. 17 was determined using an unpaired, one-tailed, Student's t-test.
Compound screen: To test the HCS protocol, a pilot drug screen was performed using the library of pharmacologically active compounds (LOPAC1280™ 1280 compounds). Tight gating parameters for total fluorescence were used to sort 35 young adult Pnhx2sGFP::ATZ animals into wells of 384-well plates containing […] of a LOPAC compound and 0.5% DMSO. Pnhx2sGFP::ATZ animals incubated with 0.5% DMSO served as untreated controls and were placed in the first-two and last-two columns of each plate. In a representative experiment, plate 1 of the LOPAC library was set-up for screening on day 1, and 3 other plates were set-up on the next day. After 24 incubation at 25° C., animals were immobilized by the addition of NaAz and placed in the ArrayScan VTI for automated imaging. To examine for systematic errors, the raw data (total spot area/animal) were depicted as a plate-well scatter plot (FIG. 17A). […] This difference reflects a wider sort-window used to collect animals on day 1 in comparison to that used on day 2. As the average values of the negative controls and that of the sample wells were similar, we combined the control and samples wells for normalization and to identify potential hits using the z-score (FIG. 17B). The ArrayScan VTI reads microtiter plates by rows, alternating from left-to-right, and then right-to-left. For some assays, we noted that the control fluorescence values would drift upwards slightly in rows towards the bottom of the plate. This drift appeared to correlate with an increase in chamber temperature during the scanning period and was minimized by cooling the chamber with a fan or shortening the read times by using 2.5× objective with a 0.6 coupler. Nonetheless, intra-plate variation was controlled for by presenting the data as a B-score (FIG. 17C). […]

[3] = among compounds that decreased ATZ accumulation, based on relative rank-scores
[4] = average of compound rankings by ascending B-score from two independent screens, 50 μM, <110 decreased, >1225 increased sGFP::ATZ inclusions
[5] = among compounds that increased ATZ accumulation, based on relative rank-scores

Compound	Overall rank-order (sGFP::ATZ [1]; [3])	Rank-score (sGFP::ATZ [1]; [4])	other results
5′-3′2,3-dicarboxy-2,3-dimethyl-1,4-epoxycyclohexane [cantharidic acid]	22	79.0	concentration at which an anti-protein aggregate effect was achieved (sGFP::ATZ [2]; C. elegans assay): 100 µM; degradation of aggregated ATZ protein (sGFP::ATZ [2]; Caenorhabditis elegans model system): able to promote degradation of aggregated ATZ protein; dose-dependent response (sGFP::ATZ [2]): cantharidic acid^c
NCCc1c[nH]c2ccc(C(N)=O)cc12.O=C(O)/C=C\C(=O)O [5-carboxamidotryptamine maleate]	29	95.5	
CCN(CC)C(C)C(=O)N1c2ccccc2Sc2ccccc21.Cl (stereo not drawn) [10-(alpha-diethylaminopropionyl)-phenothiazine hydrochloride]	21	75.5	
CC(C)C[C@H]1C(=O)N2CCC[C@H]2[C@]2(O)O[C@](NC(=O)[C@@H]3C=C4c5cccc6[nH]c(Br)c(c56)C[C@H]4N(C)C3)(C(C)C)C(=O)N12.CS(=O)(=O)O [(+)-bromocriptine methanesulfonate]		1240.5	Overall rank-order (sGFP::ATZ [1]; [5]): 8
CS(=O)(=O)O.Cc1c(C(=O)c2cccc3ccccc23)c2cccc3c2n1[C@H](CN1CCOCC1)CO3 [(R)-(+)-WIN 55,212-2 mesylate]		1231.0	Overall rank-order (sGFP::ATZ [1]; [5]): 14
C[N+]1(C)CCc2cc3c(cc2[C@H]1[C@@H]1OC(=O)c2c1ccc1c2OCO1)OCO3.[Br-] [(−)-bicuculline methbromide, 1(S), 9(R)]	26	89.5	
CCN1CCc2nc(N)oc2CC1.Cl.Cl [B-HT 933 dihydrochloride]	32	105.5	dose-dependent response (sGFP::ATZ [2]): B-HT 933 dihydrochloride^d
COc1[nH]c2ccc(F)cc2c1C(=O)OCC1CCN(CCNS(C)(=O)=O)CC1.NS(=O)(=O)O [GR 125487 sulfamate salt]	4	24.0	
CN(C)c1cc2c(Nc3ccc4c(cnn4Cc4ccccc4)c3)ncnc2cn1 [GW2974]		1263.0	Overall rank-order (sGFP::ATZ [1]; [5]): 1
O=S(=O)(c1cccc2cnccc12)N1CCNCC1 [HA-100]	10	52.5	
COc1cc(OC)c(C=C2C(O)=Nc3ccccc32)c(OC)c1 [IC 261]		1253.5	Overall rank-order (sGFP::ATZ [1]; [5]): 5
CCCC(=O)NCCc1c2n(c3ccc(OC)cc13)Cc1ccccc1-2 [IIK7]		1236.5	Overall rank-order (sGFP::ATZ [1]; [5]): 11
CCCCOC(=O)NS(=O)(=O)c1sc(CC(C)C)cc1-c1ccc(Cn2c(CC)nc3c(C)cc(C)nc32)cc1 [L-162,313]		1238.0	Overall rank-order (sGFP::ATZ [1]; [5]): 9
Cc1c(CC(C)(C)C(=O)O)n(Cc2ccc(Cl)cc2)c2ccc(F)cc12 [L-655,240]	3	10.5	
O=c1[nH]c2cc(Cl)ccc2c(O)c1-c1cccc(Oc2ccccc2)c1 [L-701,324]	12	57.5	
C[C@](N)(Cc1ccc(O)c(O)c1)C(=O)O [L-alpha-methyl DOPA]	18	72.5	
COc1cccc(C(=O)NCCN2CCN(c3ccc(Cl)cc3)CC2)c1 [N-(2-[4-(4-Chlorophenyl)piperazin-1-yl]ethyl)-3-methoxybenzamide]	8	41.5	
CCCN(CCC)[C@H]1CCc2c(F)ccc(O)c2C1.Cl [S(−)-UH-301 hydrochloride]	17	65.0	

Compound	Overall rank-order (sGFP::ATZ [1]; [3])	Rank-score (sGFP::ATZ [1]; [4])	other results
Cn1ccc2cc3c(cc21)CCN3C(=O)Nc1cccnc1 [SB 206553 hydrochloride]	11	56.0	
Cc1nc(-c2ccc(-c3ccc(C(=O)N4CCc5cc6c(cc54)C4(CCN(C)CC4)CO6)cc3)c(C)c2)no1 [SB 224289 hydrochloride]		1255.0	Overall rank-order (sGFP::ATZ [1]; [5]): 3
C#C[C@]1(O)CC[C@H]2[C@@H]3CCC4=Cc5nc6nc7ccccc7n6cc5C[C@]4(C)[C@H]3CC[C@@]21C [WIN 62,577]		1233.5	Overall rank-order (sGFP::ATZ [1]; [5]): 12
Cl.N[C@@H](CCl)C(=O)O [beta-chloro-L-alanine hydrochloride]	16	61.5	
CO[C@@]1(NC(=O)CSCC#N)C(=O)N2C(C(=O)O)=C(CSc3nnnn3C)CS[C@@H]21 [cefmetazole sodium]	9	51.0	dose-dependent response (sGFP::ATZ [2]): cefmetazole sodium^d
CC1=C(C(=O)O)N2C(=O)[C@@H](NC(=O)[C@H](N)C3=CCC=CC3)[C@H]2SC1 [cephradine]	27	90.0	
Cl.Cl.OCCN1CCN(CC/C=C2/c3ccccc3Sc3ccc(C(F)(F)F)cc32)CC1 [cis-(Z)-flupenthixol dihydrochloride]	20	74.0	
Clc1ccccc1C(c1ccccc1)(c1ccccc1)n1ccnc1 [clotrimazole]			Overall rank-order (sGFP::ATZ [1]): 4; Rank-score (sGFP::ATZ [1]; 50 µM): 1255.0
CN(C)CCC=C1c2ccccc2COc2ccccc21 [doxepin hydrochloride]			Overall rank-order (sGFP::ATZ [1]): 15; Rank-score (sGFP::ATZ [1]; 50 µM): 61.0; dose-dependent response (sGFP::ATZ [2]): doxepin hydrochloride^d
Cc1cnc(C(=O)NCCc2ccc(S(=O)(=O)NC(=O)NC3CCCCC3)cc2)cn1 [glipizide]		1234.0	Overall rank-order (sGFP::ATZ [1]; [5]): 12; dose-dependent response (sGFP::ATZ [2]): glipizide^d
CN[C@@H]1C[C@@H](c2ccc(Cl)c(Cl)c2)c2ccccc21 [indatraline hydrochloride]	28	93.0	
O=C1Nc2ccccc2/C1=C1/Nc2ccccc2/C1=N\O [indirubin-3′-oxime]	25	85.0	
NCc1cc(=O)[nH]o1 [muscimol hydrobromide]	5	28.0	
NC(=Nc1ccccc1)NC(=O)c1nc(Cl)c(N)nc1N [phenamil methanesulfonate]	13	57.5	dose-dependent response (sGFP::ATZ [2]): phenamil methanesulfonate^d
CN1CCN(CCCN2c3ccccc3Sc3ccc(Cl)cc32)CC1 [prochlorperazine dimaleate]	31	103.5	
COc1ccc(C2CNC(=O)C2)cc1OC1CCCC1 (stereo not drawn) [rolipram]	14	58.0	
N#CC(C#N)=C(N)/C(C#N)=C/c1ccc(O)cc1 [tyrphostin AG 112]	30	98.0	
